Experimental data reported in patent publication US10710986B2, “PD-1/PD-L1 inhibitors” (Gilead Sciences, Inc., priority 2018, dated 2020).

Target: PD-1/PD-L1 (Homo sapiens (Human), UniProt Q9NZQ7)
Experiment: PD-1/PD-L1 biochemical protein-protein interaction assay (ALPHA)
Details: 0.3 nM His tagged PD-L1, 2.5 nM biotinylated Fc-PD-1, 60 minutes at 25° C., read-out: IC50 PD-L1-PD1
Method: Binding of the protein pairs is measured using a bead based Amplified Luminescent Proximity Homogeneous Assay (ALPHA) platform. Binding of each protein pair results in proximity of the donor and acceptor beads which leads to an increase in ALPHA signal. […] Assays are performed in 25 mM Hepes (pH 7.4), 150 mM NaCl, 3.4 mM EDTA, 0.005% Tween 20, and 0.01% BSA. […] After an assay reaction time of 60 minutes at 25° C., binding was measured with addition of 20 μg/mL ALPHA assay acceptor beads (anti-His coated) and 20 µg/mL ALPHA assay donor beads (streptavidin coated). IC50 values were calculated from the fit of the dose-response curves to a four-parameter equation.

Sequence of PD-1/PD-L1 (Q9NZQ7 19-238): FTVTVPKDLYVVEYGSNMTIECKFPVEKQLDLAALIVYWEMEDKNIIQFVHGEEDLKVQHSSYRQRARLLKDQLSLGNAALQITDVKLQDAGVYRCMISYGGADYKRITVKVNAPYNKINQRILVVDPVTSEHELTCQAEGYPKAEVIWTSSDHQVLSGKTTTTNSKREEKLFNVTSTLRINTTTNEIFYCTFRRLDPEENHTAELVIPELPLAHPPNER

| Structure (SMILES) | IC50 [nM] |
| --- | --- |
| COc1nc(-c2cccc(-c3cccc(-c4cnc(CN5CC(O)C5)c(OC)n4)c3Cl)c2F)cnc1CN1CC(O)C1 [compound 2] | 0.135 |
| COc1nc(-c2cccc(-c3cccc(-c4cnc(CN5CC(OC)C5)c(OC)n4)c3Cl)c2F)cnc1CN1CC(OC)C1 [compound 3] | 0.318 |
| COc1nc(-c2cccc(-c3cccc(-c4cnc(CN5CC6(C5)CN(C(C)=O)C6)c(OC)n4)c3Cl)c2F)cnc1CN1CC2(C1)CN(C(C)=O)C2 [compound 4] | 0.086 |
| COc1nc(-c2cccc(-c3cccc(-c4cnc(CNCCO)c(OC)n4)c3Cl)c2F)cnc1CNCCO [compound 5] | 0.213 |
| COc1nc(-c2cccc(-c3cccc(-c4cnc(CNC[C@@H]5CCC(=O)N5)c(OC)n4)c3Cl)c2F)cnc1CNC[C@@H]1CCC(=O)N1 [compound 6] | 0.099 |
| COc1nc(-c2cccc(-c3cccc(-c4cnc(CNC56CC(C#N)(C5)C6)c(OC)n4)c3Cl)c2Cl)cnc1CNC[C@@H]1CCC(=O)N1 [compound 7] | 0.43 |
| COc1nc(-c2cccc(-c3cccc(-c4cnc(CN5CC(C)(C#N)C5)c(OC)n4)c3Cl)c2Cl)cnc1CNC[C@@H]1CCC(=O)N1 [compound 9] | 0.49 |
| COc1nc(-c2cccc(-c3cccc(-c4cnc(CN[C@@H]5COC[C@H]5O)c(OC)n4)c3Cl)c2Cl)cnc1CNC[C@@H]1CCC(=O)N1 [compound 11] | 0.172 |
| COc1nc(-c2cccc(-c3cccc(-c4cnc(CN5CC(N6CCCC6=O)C5)c(OC)n4)c3Cl)c2Cl)cnc1CNC[C@@H]1CCC(=O)N1 [compound 14] | 0.224 |
| COc1nc(-c2cccc(-c3cccc(-c4cnc(CNC56CC(C(F)(F)F)(C5)C6)c(OC)n4)c3Cl)c2Cl)cnc1CNC[C@@H]1CCC(=O)N1 [compound 15] | 7.51 |
| COc1nc(-c2cccc(-c3cccc(-c4cnc(CN5CC(C)(O)C5)c(OC)n4)c3Cl)c2Cl)cnc1CNC[C@@H]1CCC(=O)N1 [compound 16] | 0.173 |
| COc1nc(-c2cccc(-c3cccc(-c4cnc(CNC[C@H]5CCCN5C(C)=O)c(OC)n4)c3Cl)c2Cl)cnc1CNC[C@@H]1CCC(=O)N1 [compound 17] | 0.163 |
| COc1nc(-c2cccc(-c3cccc(-c4cnc(CNC[C@@H]5CCCN5C(C)=O)c(OC)n4)c3Cl)c2Cl)cnc1CNC[C@@H]1CCC(=O)N1 [compound 18] | 0.266 |
| CNC(=O)[C@H]1CCCN1Cc1ncc(-c2cccc(-c3cccc(-c4cnc(CNC[C@@H]5CCC(=O)N5)c(OC)n4)c3Cl)c2Cl)nc1OC [compound 20] | 0.546 |
| COC[C@@H]1CCCN1Cc1ncc(-c2cccc(-c3cccc(-c4cnc(CNC[C@@H]5CCC(=O)N5)c(OC)n4)c3Cl)c2Cl)nc1OC [compound 22] | 0.506 |
| COc1nc(-c2cccc(-c3cccc(-c4cnc(CN5CCC[C@@H]5CO)c(OC)n4)c3Cl)c2Cl)cnc1CNC[C@@H]1CCC(=O)N1 [compound 23] | 0.221 |
| COc1nc(-c2cccc(-c3cccc(-c4cnc(CN5CCC[C@H]5CO)c(OC)n4)c3Cl)c2Cl)cnc1CNC[C@@H]1CCC(=O)N1 [compound 24] | 0.179 |
| COc1nc(-c2cccc(-c3cccc(-c4cnc(CNC[C@@H]5CCC(=O)N5)c(OC)n4)c3Cl)c2Cl)cnc1CNCc1cnn(CCO)c1 [compound 26] | 0.06 |
| COc1nc(-c2cccc(-c3cccc(-c4cnc(CNC[C@@H]5CCC(=O)N5)c(OC)n4)c3Cl)c2Cl)cnc1CNCc1ccn(C)n1 [compound 27] | 0.09 |

| Structure (SMILES) | IC50 [nM] |
| --- | --- |
| COc1nc(-c2cccc(-c3cccc(-c4cnc(CNC[C@@H]5CCC(=O)N5)c(OC)n4)c3Cl)c2Cl)cnc1CNCc1nc[nH]n1 [compound 28] | 0.436 |
| COc1nc(-c2cccc(-c3cccc(-c4cnc(CNCc5nc(C)n[nH]5)c(OC)n4)c3Cl)c2Cl)cnc1CNCc1nc(C)n[nH]1 [compound 29] | 1.09 |
| COc1nc(-c2cccc(-c3cccc(-c4cnc(CNCc5ccn(C)n5)c(OC)n4)c3Cl)c2Cl)cnc1CNCc1ccn(C)n1 [compound 30] | 0.475 |
| CCn1cc(CNCc2ncc(-c3cccc(-c4cccc(-c5cnc(CNCc6cnn(CC)c6)c(OC)n5)c4Cl)c3Cl)nc2OC)cn1 [compound 31] | 0.334 |
| COc1nc(-c2cccc(-c3cccc(-c4cnc(CNC[C@@H]5CCC(=O)N5)c(OC)n4)c3Cl)c2Cl)cnc1CNCCc1cnn[nH]1 [compound 33] | 0.138 |
| COc1nc(-c2cccc(-c3cccc(-c4cnc(CNC[C@@H]5CCC(=O)N5)c(OC)n4)c3Cl)c2Cl)cnc1CNCc1ccnn1C [compound 34] | 0.231 |
| COc1nc(-c2cccc(-c3cccc(-c4cnc(CNC[C@@H]5CCC(=O)N5)c(OC)n4)c3Cl)c2Cl)cnc1CNCc1c[nH]nn1 [compound 35] | 0.191 |
| COc1nc(-c2cccc(-c3cccc(-c4cnc(CN5C[C@@H](N)CCC5=O)c(OC)n4)c3Cl)c2Cl)cnc1CNC[C@@H]1CCC(=O)N1 [compound 36] | 1.29 |
| COc1nc(-c2cccc(-c3cccc(-c4cnc(CNC[C@@H]5CCC(=O)N5)c(OC)n4)c3Cl)c2Cl)cnc1CNCCNc1ccc([N+](=O)[O-])cc1 [compound 37] | 1.7 |
| COc1nc(-c2cccc(-c3cccc(-c4cnc(CN[C@H]5CCNC5=O)c(OC)n4)c3Cl)c2Cl)cnc1CNC[C@@H]1CCC(=O)N1 [compound 39] | 0.39 |
| COc1nc(-c2cccc(-c3cccc(-c4cnc(CN5C[C@@H](F)C[C@H]5CO)c(OC)n4)c3Cl)c2Cl)cnc1CNC[C@@H]1CCC(=O)N1 [compound 40] | 0.238 |
| COc1nc(-c2cccc(-c3cccc(-c4cnc(CN5CCNC(=O)C5)c(OC)n4)c3Cl)c2Cl)cnc1CNC[C@@H]1CCC(=O)N1 [compound 41] | 0.083 |
| COc1nc(-c2cccc(-c3cccc(-c4cnc(CNC[C@@H]5CCC(=O)N5)c(OC)n4)c3Cl)c2Cl)cnc1CNCCS(N)(=O)=O [compound 43] | 0.083 |
| COc1nc(-c2cccc(-c3cccc(-c4cnc(CNC[C@@H]5CCC(=O)N5)c(OC)n4)c3Cl)c2Cl)cnc1CNCCC(N)=O [compound 45] | 0.064 |
| CCN(CCc1cn[nH]c1)Cc1ncc(-c2cccc(-c3cccc(-c4cnc(CNC[C@@H]5CCC(=O)N5)c(OC)n4)c3Cl)c2Cl)nc1OC [compound 48] | 0.822 |
| COc1nc(-c2cccc(-c3cccc(-c4cnc(CNC[C@@H]5CCC(=O)N5)c(OC)n4)c3Cl)c2Cl)cnc1CNCCc1cn[nH]c1 [compound 49] | 0.356 |
| COc1nc(-c2cccc(-c3cccc(-c4cnc(CN(C)CC(N)=O)c(OC)n4)c3Cl)c2Cl)cnc1CNC[C@@H]1CCC(=O)N1 [compound 51] | 0.301 |
| COc1nc(-c2cccc(-c3cccc(-c4cnc(CN5CC6CC6(CO)C5)c(OC)n4)c3Cl)c2Cl)cnc1CNC[C@@H]1CCC(=O)N1 (stereo partly shown) [compound 52] | 0.17 |
| COc1nc(-c2cccc(-c3cccc(-c4cnc(CNC[C@H]5CCC[C@@H]5O)c(OC)n4)c3Cl)c2Cl)cnc1CNC[C@@H]1CCC(=O)N1 [compound 54] | 0.18 |

Continued by falling IC50, values first:

| IC50 [nM] | Structure (SMILES) |
| --- | --- |
| 3.42 | COc1nc(-c2cccc(-c3cccc(-c4cnc(CNC[C@@H]5CCC(=O)N5)c(OC)n4)c3Cl)c2Cl)cnc1CNCCS(=O)(=O)O [compound 42] |
| 1.49 | COc1nc(-c2cccc(-c3cccc(-c4cnc(CNC56CC(C5)C6)c(OC)n4)c3Cl)c2Cl)cnc1CNC[C@@H]1CCC(=O)N1 [compound 12] |
| 0.66 | COc1nc(-c2cccc(-c3cccc(-c4cnc(CNC(CO)c5nn[nH]n5)c(OC)n4)c3Cl)c2Cl)cnc1CNC[C@@H]1CCC(=O)N1 (stereo partly shown) [compound 38] |
| 0.59 | COc1nc(-c2cccc(-c3cccc(-c4cnc(CNC56CC(OC)(C5)C6)c(OC)n4)c3Cl)c2Cl)cnc1CNC[C@@H]1CCC(=O)N1 [compound 8] |
| 0.525 | COC[C@H]1CCCN1Cc1ncc(-c2cccc(-c3cccc(-c4cnc(CNC[C@@H]5CCC(=O)N5)c(OC)n4)c3Cl)c2Cl)nc1OC [compound 21] |
| 0.482 | COc1nc(-c2cccc(-c3cccc(-c4cnc(CN5CC(C(N)=O)C5)c(OC)n4)c3Cl)c2Cl)cnc1CNC[C@@H]1CCC(=O)N1 [compound 13] |
| 0.27 | COc1nc(-c2cccc(-c3cccc(-c4cnc(CN5CC(C#N)C5)c(OC)n4)c3Cl)c2Cl)cnc1CNC[C@@H]1CCC(=O)N1 [compound 10] |
| 0.26 | COc1nc(-c2cccc(-c3cccc(-c4cnc(CNC[C@@H]5CCC(=O)N5)c(OC)n4)c3Cl)c2Cl)cnc1CNCC1CCCCO1 (stereo partly shown) [compound 55] |
| 0.259 | COc1nc(-c2cccc(-c3cccc(-c4cnc(CN5CC6(CNC(=O)O6)C5)c(OC)n4)c3Cl)c2Cl)cnc1CNC[C@@H]1CCC(=O)N1 [compound 50] |
| 0.199 | CNC(=O)[C@@H]1CCCN1Cc1ncc(-c2cccc(-c3cccc(-c4cnc(CNC[C@@H]5CCC(=O)N5)c(OC)n4)c3Cl)c2Cl)nc1OC [compound 19] |
| 0.187 | CCn1cc(CNCc2ncc(-c3cccc(-c4cccc(-c5cnc(CNC[C@@H]6CCC(=O)N6)c(OC)n5)c4Cl)c3Cl)nc2OC)nn1 [compound 32] |
| 0.16 | COc1nc(-c2cccc(-c3cccc(-c4cnc(CNC[C@@H]5CCC(=O)N5)c(OC)n4)c3Cl)c2Cl)cnc1CNCC(O)C(F)(F)F (stereo partly shown) [compound 47] |
| 0.113 | COc1nc(-c2cccc(-c3cccc(-c4cnc(CNC[C@@H]5CCC(=O)N5)c(OC)n4)c3Cl)c2Cl)cnc1CNCCNC(N)=O [compound 44] |
| 0.1 | COc1nc(-c2cccc(-c3cccc(-c4cnc(CN5CC6CC5(CO)C6)c(OC)n4)c3Cl)c2Cl)cnc1CNC[C@@H]1CCC(=O)N1 [compound 53] |
| 0.081 | COc1nc(-c2cccc(-c3cccc(-c4cnc(CN(C)C)c(OC)n4)c3Cl)c2Cl)cnc1CNC[C@@H]1CCC(=O)N1 [compound 46] |
| 0.08 | COc1nc(-c2cccc(-c3cccc(-c4cnc(CN5CC6(CCC(=O)N6)C5)c(OC)n4)c3Cl)c2F)cnc1CN1CC2(CCC(=O)N2)C1 [compound 1] |
| 0.08 | COc1nc(-c2cccc(-c3cccc(-c4cnc(CNC[C@@H]5CCC(=O)N5)c(OC)n4)c3Cl)c2Cl)cnc1CNCCOC(N)=O [compound 25] |
